Assay results reported in the supplement of paper PMC10949913.

What was measured:
Settings in all cases: 48 h
CU-ACC1 [1] = assay: AC50 viability; higher = less potent
In short: (§1)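 Library compounds were tested at 11 concentrations against three adrenocortical carcinoma cell lines in 1,536-well plates. CellTiter-Glo luminescence was read after 48 h and normalised per plate to vehicle and empty-well controls. Only inhibitory or non-responding curve classes from fitted concentration-response curves contributed AC50 and area under the curve.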

CU-ACC1 [2] = assay: area under concentration-response curve (viability) (AUC (a.u.)); higher = less active
In short: as §1

NCI-H295R [3] = assay: as above
In short: as §1

NCI-H295R [4] = assay: AC50 viability; higher = less potent
In short: as §1

CU-ACC2 = assay: area under concentration-response curve (viability) (AUC (a.u.)); higher = less active
In short: as §1

| SMILES | AC50 viability (CU-ACC1 [1]) [µM] | area under concentration-response curve (CU-ACC1 [2]) | area under concentration-response curve (NCI-H295R [3]) | AC50 viability (NCI-H295R [4]) [µM] | area under concentration-response curve (CU-ACC2) |
| --- | --- | --- | --- | --- | --- |
| O=C(/C=C/c1ccc(Cl)cc1)N1CCC2(CC1)CN(Cc1ccc(Cl)c(Cl)c1)C(=O)O2 | 20.9 | 432 | – | – | – |
| O=C(NO)c1cnc(NC2(c3cccc(F)c3)CCCCC2)nc1 | 20.9 | 474 | 538 | – | – |
| Cc1c(NC(=O)OCC2COCCN2)cn2ncnc(Nc3ccc4c(cnn4Cc4cccc(F)c4)c3)c12 (centres undefined) | 23.5 | 433 | – | – | – |
| N[C@@H]1C[C@H]1c1ccccc1 | 0.00186 | 341 | 353 | – | – |
| C[C@H](NC1=C2N=C[NH]C2=NC=N1)C/3=C/C4=C(C(=CC=C4)Cl)C(=O)N3C5=CC=CC=C5 | 20.9 | 447 | – | – | – |
| CCN(CC)CCCCNc1nc2cc(Cl)c(Cl)cc2nc1-c1ccc(-c2cccs2)s1 | 23.5 | 451 | – | – | – |
| CC(C)[N]1C=C(C)C2=C1C=C(C=C2C(=O)NC\C3=C(C)\C=C(C)/NC3=O)C4=CC=C(N=C4)N5CCN(C)CC5 | 23.5 | 491 | – | – | – |
| COc1cccc2c1CCCC2CCCN1CCN(C2CCCCC2)CC1 (centres undefined) | 16.6 | 501 | – | – | – |
| Nc1ncnc(Nc2ccc(OCc3ccccc3)c(Cl)c2)c1/C=N/OCCN1CCOCC1 | 20.9 | 324 | – | – | – |
| CCCCCNC(=N)N/N=C/c1c[nH]c2ccc(OC)cc12 | 14.8 | 416 | – | – | – |
| CC(=O)N1CCN(CCOC2=CC=C(C=C2)C3CCN(CC3)/C4=N/[N]5C(=NN=C5C(F)(F)F)CC4)CC1 | 11.8 | 430 | – | – | – |
| COC[C@H]1OC(=O)C2=COC3=C2[C@@]1(C)\C4=C(\[C@@H]5CC[C@H](O)[C@@]5(C)C[C@H]4OC(C)=O)C3=O | 4.17 | 311 | – | – | – |
| CC1=CC=CC=C1CN2C(=O)C/3=C(/CCN(CC4=CC=CC=C4)C3)N\5CC\N=C25 | 6.61 | 313 | – | – | – |
| CN(C)CCCOc1ccc(-c2ccc3ncc4c(c3c2)n(C2CCOCC2)c(=O)n4C)cn1 | 11.5 | 487 | – | – | – |
| O=C(N[C@H]1CCC[C@H](CO)C1)C1CCN(c2nc3cc(Cl)c(-c4ccc(Cl)cc4)cc3o2)CC1 | 20.9 | 484 | – | – | – |
| OCCOc1ccc(/C(=C(/CCCl)c2ccccc2)c2ccccc2)cc1 | 23.5 | 470 | – | – | – |
| ClC1=C[NH]N=C1C\2NC(=N\C3=C2C(=O)CCC3)/NC4=NC5=CC=CC=C5O4 (centres undefined) | 41.7 | 426 | – | – | – |
| CC1=C(OC2=CC3=NC=N[N]3C=C2)C=CC(=C1)NC4=NC=NC5=C4C=C(N\C6=N\C(C)(C)CO6)C=C5 | 0.00296 | 402 | – | – | – |
| C[C@@H](Nc1cc(F)cc(F)c1)c1cc(C(=O)N(C)C)cc2c(=O)cc(N3CCOCC3)oc12 | 13.2 | 466 | – | – | – |
| N#CC1(c2cccc(C(=O)Nc3cc(Oc4ccc5nc(NC(=O)C6CC6)sc5n4)ccc3F)c2Cl)CC1 | 4.17 | 390 | – | – | – |

| SMILES | AC50 viability (CU-ACC1 [1]) [µM] | area under concentration-response curve (CU-ACC1 [2]) | area under concentration-response curve (NCI-H295R [3]) | AC50 viability (NCI-H295R [4]) [µM] | area under concentration-response curve (CU-ACC2) |
| --- | --- | --- | --- | --- | --- |
| CN(C)CCN1C(=O)c2cccc3cc(N)cc(c23)C1=O | 26.3 | 452 | – | – | – |
| CC(C)(C)C1=CC(=C(NC(=O)C/2=C/NC3=C(C=CC=C3)C2=O)C=C1O)C(C)(C)C | – | 532 | 426 | 18.6 | 572 |
| Cc1cc(C)c(C/N=C(\O)c2cc(-c3ccc(N4CCN(C)CC4)nc3)cc3c2c(C)cn3C(C)C)c(O)n1 | 29.5 | 490 | – | – | – |
| CN(C)Cc1cccc(N/C(=C2\C(=O)Nc3cc(C(N)=O)ccc32)c2ccccc2)c1 | 23.5 | 420 | – | – | – |
| NC/1=N/C2=C([NH]C=N2)C(=S)N1 | – | 511 | 533 | 10.5 | 609 |
| Nc1ncnc2c1ncn2[C@@H]1O[C@H](CO)C[C@H]1O | – | 550 | 528 | 20.9 | 612 |
| COc1ccc(OC)c(-c2nnc3ccc(-c4ccc(OC)c(O[C@@H]5CCOC5)c4)nn23)c1 | – | 482 | 541 | 5.9 | 624 |
| c1cn2cc(-c3ccc4cn[nH]c4c3)nc(Nc3ccc(N4CCOCC4)cc3)c2n1 | – | 509 | 497 | 7.42 | 568 |
| CCCCc1oc2ccc(N[S+](C)(=O)[O-])cc2c1C(=O)c1ccc(OCCCN(CCCC)CCCC)cc1 | – | 477 | 486 | 7.42 | 563 |
| CC[C@]1(O)C[C@H]2CN(CCC3=C([NH]C4=C3C=CC=C4)[C@@](C2)(C(=O)OC)C5=CC6=C(C=C5OC)N(C=O)[C@H]7[C@](O)([C@H](OC(C)=O)[C@]8(CC)\C=C/CN9CC[C@]67[C@H]89)C(=O)OC)C1 | – | 504 | 471 | 3.32 | 590 |
| C[C@H]1CCC/C=C/C2C[C@H](O)C[C@H]2[C@H](O)/C=C/C(=O)O1 (some centres undefined) | – | 390 | 346 | 0.263 | 389 |
| Nc1nccc(-c2ccc3noc(-c4ccc(Cl)cc4)c3c2)n1 | – | 344 | 354 | 0.263 | 345 |
| C[N]1N=CC2=C1C=C(C(=C2)OC3=CC=C(NC(=O)\C4=C\C=C(\C)N(C4=O)C5=CC=C(F)C=C5)C=C3F)C6=C[NH]N=C6 | – | 508 | 539 | 7.42 | 626 |
| C[S+](=O)([O-])c1ccc(-c2cnc(NCc3ccco3)n3cnnc23)cc1 | 2.09 | 357 | – | – | – |
| CN1\C(=C(O)/C2=C(C=C(Cl)S2)[S+]1([O-])=O)C(=O)NC3=NC=CC=C3 | – | 434 | 380 | 0.118 | 421 |
| Cc1cc(Nc2nc(N[C@@H](C)c3ncc(F)cn3)ncc2Cl)n[nH]1 | – | 472 | 488 | 14.8 | 544 |
| CCN(CC)CCNC(=O)c1c(C)[nH]c(/C=C2\C(=O)Nc3ccc(F)cc32)c1C | – | 528 | 456 | 9.34 | 529 |
| CN(C)CCCN\C1=C\2C(=O)N(C)C(=O)\N=C2N(C)C3=C1C=CC=C3 | 18.6 | 501 | – | – | – |
| COc1ccc(/C=C\c2cc(OC)c(OC)c(OC)c2)cc1O | – | 505 | 333 | 0.00934 | 474 |
| C=CCc1cccc(/C=N/NC(=O)CN2CCN(Cc3ccccc3)CC2)c1O | – | 523 | 587 | 26.3 | 650 |

| SMILES | AC50 viability (CU-ACC1 [1]) [µM] | area under concentration-response curve (CU-ACC1 [2]) | area under concentration-response curve (NCI-H295R [3]) | AC50 viability (NCI-H295R [4]) [µM] | area under concentration-response curve (CU-ACC2) |
| --- | --- | --- | --- | --- | --- |
| CCOC1=CC(=CC=C1C/2=N/[C@@](C)(C3=CC=C(Cl)C=C3)[C@](C)(N2C(=O)N4CCN(CC4)CC(=O)N5CCOCC5)C6=CC=C(Cl)C=C6)C(C)(C)C | 16.3 | 440 | – | – | – |
| CC/C(=C(/CC)c1ccc(O)cc1)c1ccc(O)cc1 | – | 516 | 517 | 18.6 | 585 |
| O=C(Nc1cccc(C(F)(F)F)c1)Nc1cc([S+](=O)([O-])NC2CC2)ccc1-c1ccsc1 | – | 525 | 514 | 23.5 | 568 |
| C[C@H](CN(C)C)Oc1nc(Nc2cc3cccc(Cl)c3cn2)cnc1C#N | – | 491 | 456 | 14.8 | 585 |
| O=C1S/C(=C\c2ccc(OCc3cccc(B(O)O)c3)cc2)C(=O)N1Cc1ccc(F)cc1 | – | 442 | 463 | 13.2 | 488 |
| COC(=O)c1ccc([C@H]2c3[nH]c4ccccc4c3C[C@H](C(=O)OC)N2C(=O)CCl)cc1 | – | 385 | 356 | 0.263 | 360 |
| Cc1cc2c(F)c(Oc3ncnn4cc(OCC(C)OC(=O)C(C)N)c(C)c34)ccc2[nH]1 (centres undefined) | – | 473 | 481 | 18.6 | 468 |
| CCC[C@H](N[C@H]1CCc2cc(F)cc(F)c2C1)C(=O)Nc1cn(C(C)(C)CNCC(C)(C)C)cn1 | – | 522 | 455 | 23.5 | 584 |
| CC(=O)c1cnc2ccc(-c3cc(Cl)c(O)c(Cl)c3)nc2c1N[C@H]1CC[C@H](CN(C)C)CC1 | – | 491 | 373 | 0.959 | 433 |
| c1ccc(CNc2nc(N3CCOc4ccccc43)nc3c2CCCC3)cc1 | – | 449 | 481 | 20.9 | 528 |
| CCCCN(CCCC)CCC(O)c1cc2c(Cl)cc(Cl)cc2c2cc(C(F)(F)F)ccc12.Cl (centres undefined) | – | 538 | 548 | 23.5 | 615 |
| O=C(Nc1ccncc1)C(=O)c1cn(Cc2ccc(Cl)cc2)c2ccccc12 | – | 471 | 418 | 0.372 | 419 |
| C/C(=C\c1csc(C)n1)[C@@H]1C[C@@H]2O[C@]2(C)CCC[C@H](C)[C@H](O)[C@@H](C)C(=O)C(C)(C)[C@@H](O)CC(=O)O1 | – | 467 | 346 | 0.0118 | 548 |
| Cc1cc(-c2nc3cc(F)ccc3s2)ccc1NC(=O)[C@@H](N)CCCCN | – | 555 | 538 | 23.5 | 599 |
| C/C=C(\C)C(=O)N[C@@H](c1ccccc1)[C@@H](O)C(=O)O[C@H]1C[C@@]2(O)[C@@H](OC(=O)c3ccccc3)[C@@H]3[C@]4(OC(C)=O)CO[C@@H]4C[C@H](O)[C@@]3(C)C(=O)[C@H](OC(C)=O)C(=C1C)C2(C)C | – | 447 | 418 | 0.833 | 515 |
| COc1cc(N2CCC(N3CCN(C)CC3)CC2)ccc1Nc1ncnc(Nc2ccccc2[S+](=O)([O-])C(C)C)n1 | 0.00468 | 258 | – | – | – |
| C/C=C(/C)C(=O)O[C@H]1C(C)=C2[C@H]([C@@H]1OC(=O)CCCCCCC)[C@@](C)(OC(C)=O)C[C@H](OC(=O)CCC)[C@@]1(O)[C@H]2OC(=O)[C@@]1(C)O | – | 465 | 498 | 10.5 | 344 |
| CC(C)(O)[C@H]1CC[C@H](Nc2ccc3ncc(-c4cccc(C(F)(F)F)c4)n3n2)CC1 | – | 434 | 460 | 11.8 | 490 |
| C/C(=C\c1csc(C)n1)[C@@H]1C[C@@H]2O[C@@H]2CCC[C@H](C)[C@H](O)[C@@H](C)C(=O)C(C)(C)[C@@H](O)CC(=O)O1 | – | 462 | 347 | 0.0132 | 569 |
